Laboratory results: patent US10017459B2, “β-substituted β-amino acids and analogs as chemotherapeutic agents and uses thereof” (Quadriga Biosciences, Inc., priority 2015, dated 2018)

How the values were obtained:
PC3 [1] = assay: cells; assay type: cell-based; settings: Homo sapiens, PC-3, read-out: IC50 (in vitro toxicity)
RPMI8266 = assay: cells; assay type: cell-based; settings: RPMI8266, read-out: IC50 (in vitro toxicity)
LN229 = assay: cells; assay type: cell-based; settings: Homo sapiens, LN-229, read-out: IC50 (in vitro toxicity)
MM1.S = assay: cells; assay type: cell-based; settings: Homo sapiens, read-out: IC50 (in vitro toxicity)
PC3 tumors = assay: Prostate cancer xenograft study, large tumor study; assay type: in vivo, mouse
Method: PC3 tumors were implanted into mice and the study was initiated after the volume of the tumors was 500 mm^3. Five (5) mg/kg compound (5) was administered by IP injection three times per week for two weeks. The tumor size, body weight, white cell count, and granulocyte count were measured.
In a counterpart study, mice in which the PC3 tumor size was at least 500 mm^3 were administered either 7.5 mg/kg or 10 mg/kg compound (5) three times a week for four weeks. In these studies, the mice were first administered a dose of either 2.5 mg/kg or 1.25 mg/kg, three times per week for three weeks. The tumor size, body weight, white cell count, and granulocyte count were measured. The tumor volume for the 7.5 mg/kg dosing regimen is resented in FIGS. 8A-8D, and for the 10 mg/kg dosing regimen in FIGS. 9A-9D.

1334 = assay: In vitro cytotoxicity, 1334; assay type: cell-based; settings: read-out: IC50 (in vitro toxicity)
U251 MG = assay: Orthotopic glioblastoma study (Example 84); assay type: in vivo, mouse; settings: 5 mg/kg and 10 mg/kg IV once weekly for 4 weeks
Method: The efficacy of compounds provided by the present disclosure was evaluated using an orthotopic luciferase human glioblastoma model—U251 MG. Human glioblastoma cells were intracolonically injected (3×10^5 cells/3 μL) into athymic mice (female, 4-5 weeks-old, nu/un homozygous). Treatment began when the BLI reached a log-phase growth, at about 14 days after injection. Ten mice were assigned to each arm of the study. The mice were dosed with vehicle (IP, once weekly for 4 weeks), compound (5) (5 mg/kg, IV once weekly for 4 weeks), compound (5) (10 mg/kg, IV once weekly for 4 weeks), compound (40) (10 mg/kg, IV once weekly for 4 weeks), or compound (50) (20 mg/kg, IV single dose). The tumor volume was measured using bioluminescence imaging.

U266 = assay: cells; assay type: cell-based; settings: Homo sapiens, U-266, read-out: IC50 (in vitro toxicity)
DBRTG = assay: cells; assay type: cell-based; settings: read-out: IC50 (in vitro toxicity)
MCF7 = assay: In vitro cytotoxicity, MCF7; assay type: cell-based; settings: Homo sapiens, MCF7, read-out: IC50 (in vitro toxicity)
G55 = assay: cells; assay type: cell-based; settings: read-out: IC50 (in vitro toxicity)
PC3 [2] = assay: Prostate cancer xenograft study, IP dosing; assay type: in vivo, mouse
Method: The efficacy of compounds provided by the present disclosure was evaluated on a prostate cancer xenograft model—PC3. PC3 tumors were implanted into mice and the study was initiated after the volume of the tumors was 130 mm^3. The animals were IP dosed once a week or 3 times per week for 3 weeks with either vehicle or 1.25 mg/kg, 2.5 mg/kg, or 5 mg/kg of compound (5). The tumor volume, body weight, white blood cell count, and granulocyte count were determined during the study and 10 days after the final dose was administered.

[3] = 5 mg/kg IP three times per week for two weeks
[4] = 7.5 mg/kg or 10 mg/kg dosing regimens

Cc1ccc(N(CCCl)CCCl)cc1C[C@H](N)CC(=O)O [Compound 5, (3S)-3-Amino-4-[5-[bis(2-chloroethyl)amino]-2-methyl-phenyl]butanoic Acid]
IC50 (PC3 [1]): < 100 µM
IC50 (RPMI8266): > 100 µM
IC50 (LN229): < 100 µM
IC50 (MM1.S): < 100 µM
body weight (PC3 tumors; [3]): decreased
cell counts (white cell, granulocyte) (PC3 tumors; [3]): remained within the normal range
body weights (PC3 tumors; [4]): remained about the same
cell counts (white cell, granulocyte) (PC3 tumors; [4]): remained within the normal range
tumor growth rate, large tumors (PC3 tumors; tumors 500 mm3, 5 mg/kg IP three times per week for two weeks): growth rate slowed for some large tumors
PC3 tumor growth, large tumors (PC3 tumors; tumors at least 500 mm3, 7.5 mg/kg or 10 mg/kg three times a week for four weeks): slowed in many of the animals and in some the size of the tumor decreased
IC50 1334: < 100 µM
glioblastoma tumor growth (bioluminescence imaging) (U251 MG): dose-dependent suppression of glioblastoma tumor growth
IC50 (U266): < 100 µM
IC50 (DBRTG): < 100 µM
IC50 (MCF7): < 100 µM
IC50 (G55): < 100 µM
tumor growth post-treatment (PC3 [2]; 1.25 mg/kg, 2.5 mg/kg, and 5 mg/kg regimens, IP): demonstrated a dose response
growth of the tumors (PC3 [2]; 5 mg/kg dosing regimen, IP once a week or 3 times per week for 3 weeks): nearly completely suppressed
animal body weights (PC3 [2]; all dosing regimens): remained the same increased
white blood cell count and granulocyte count (PC3 [2]; during and following treatment, all dosing regimens): remained within normal range
